Measured values taken from patent publication US20250179059A1 (The Regents of the University of California, priority 2021, published 2025).

Assays:
[1] = test system: human SKM-1 acute myeloid leukemia cells; experiment: SKM-1 antiproliferation cell-based assay (ATPlite); conditions: Homo sapiens, SKM-1, SKM-1 antiproliferation assay
How it was run: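 Log-phase cells in RPMI 1640/15% FBS were seeded at 34722 cells/mL and exposed for 4 days to nine-concentration DMSO serial dilutions in triplicate. Viability was read as ATP luminescence (ATPlite 1step), and IC50 values came from variable-slope non-linear regression.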

[2] = target: T1, human BRD4 bromodomain II (Homo sapiens, UniProt O60885); experiment: Bromodomain binding assay (AlphaScreen), BRD4 BDII; conditions: BRD4 BDII AlphaScreen assay; read-out: BRD4 BD2 IC50
T1 construct: human BRD4 bromodomain II [based on Genbank NM_058243, residues 349-460]; host or cells: E. coli
How it was run: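 AlphaScreen competition: His6-BRD4 BDI (aa 44-170) or BDII (aa 349-460) vs biotin-H4(1-21) K5/K8/K12/K16Ac peptide; Ni-chelate acceptor/streptavidin donor beads. HEPES pH 7.5, NaCl, CHAPS, BSA, 1% DMSO; RT. 10-pt 3-fold titration, % peptide binding fitted → IC50.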

Q: Which GI50 [1] does the source give for Cc1ncc(-c2cc(F)cc(-c3ccc(-n4ccn(C)c4=O)c(Cl)c3)c2O)cc1N1CC[C@]2(CCCN2C(C)C)C1 [Example 956, (R)-1-(3-chloro-5′-fluoro-2′-hydroxy-3′-(5-(1-isopropyl-1,7-diazaspiro[4.4]nonan-7-yl)-6-methylpyridin-3-yl)-[1,1′-biphenyl]-4-yl)-3-methyl-1,3-dihydro-2H-imidazol-2-one] here?
A: The GI50 was 0.3 to 30 nM.

Q: And the IC50 [2]?
A: The IC50 was 1 to 10 nM.

Q: For COc1ncc(-c2cc(F)cc(-c3ccc(-n4ccn(C)c4=O)c(Cl)c3)c2O)cc1N1CC[C@@]2(CCCN2C(C)C)C1 [Example 957, (S)-1-(3-chloro-5′-fluoro-2′-hydroxy-3′-(5-(1-isopropyl-1,7-diazaspiro[4.4]nonan-7-yl)-6-methoxypyridin-3-yl)-[1,1′-biphenyl]-4-yl)-3-methyl-1,3-dihydro-2H-imidazol-2-one], which GI50 [1] is on record?
A: The GI50 was 0.3 to 30 nM.

Q: What about the IC50 [2] of the same molecule?
A: The IC50 was 0.01 to 1 nM.

Q: Which results are given for COc1ncc(-c2cc(F)cc(-c3ccc(-n4ccn(C)c4=O)c(Cl)c3)c2O)cc1N1CC[C@]2(CCCN2C(C)C)C1 [Example 958, (R)-1-(3-chloro-5′-fluoro-2′-hydroxy-3′-(5-(1-isopropyl-1,7-diazaspiro[4.4]nonan-7-yl)-6-methoxypyridin-3-yl)-[1,1′-biphenyl]-4-yl)-3-methyl-1,3-dihydro-2H-imidazol-2-one]?
A: GI50 [1]: 0.3 to 30 nM; IC50 [2]: 0.01 to 1 nM

Q: How did the GI50 [1] turn out when COc1ncc(-c2nc(C)cc(-c3ccc(-n4ccn(C)c4=O)c(Cl)c3)c2O)cc1N1CCN(C(C)(C)C)CC1 [Example 959, 1-(4-(5′-(4-(tert-butyl)piperazin-1-yl)-3-hydroxy-6′-methoxy-6-methyl-[2,3′-bipyridin]-4-yl)-2-chlorophenyl)-3-methyl-1,3-dihydro-2H-imidazol-2-one] was run?
A: The GI50 was 0.3 to 30 nM.

Q: What about the IC50 [2] of the same molecule?
A: Its IC50 is 1 to 10 nM.

Q: For COc1ncc(-c2cc(F)cc(-c3ccc(-n4ccn(C)c4=O)c(Cl)c3)c2O)cc1N1CCN(C(C)(C)CO)CC1 [Example 960, 1-(3-chloro-5′-fluoro-2′-hydroxy-3′-(5-(4-(1-hydroxy-2-methylpropan-2-yl)piperazin-1-yl)-6-methoxypyridin-3-yl)-[1,1′-biphenyl]-4-yl)-3-methyl-1H-imidazol-2(3H)-one], which GI50 [1] is on record?
A: The GI50 was 0.3 to 30 nM.

Q: And the IC50 [2]?
A: The IC50 was 1 to 10 nM.

Q: For Cc1cc(-c2ccc(-n3ccn(C)c3=O)c(Cl)c2)c(O)c(-c2cnc(C)c(N3CCN(C(C)(C)C)CC3)c2)n1 [Example 961, 1-(4-(5′-(4-(tert-butyl)piperazin-1-yl)-3-hydroxy-6,6′-dimethyl-[2,3′-bipyridin]-4-yl)-2-chlorophenyl)-3-methyl-1H-imidazol-2(3H)-one], which GI50 [1] is on record?
A: The GI50 was 0.3 to 30 nM.

Q: And the IC50 [2]?
A: Its IC50 is 1 to 10 nM.

Q: Which GI50 [1] does the source give for Cc1cc(-c2ccc(-n3ccn(C)c3=O)c(Cl)c2)c(O)c(-c2cnc(N)c(N3CCN(C(C)(C)C)CC3)c2)n1 [Example 962, 1-(4-(6′-amino-5′-(4-(tert-butyl)piperazin-1-yl)-3-hydroxy-6-methyl-[2,3′-bipyridin]-4-yl)-2-chlorophenyl)-3-methyl-1H-imidazol-2(3H)-one] here?
A: The GI50 was 0.3 to 30 nM.

Q: And the IC50 [2]?
A: Its IC50 is 1 to 10 nM.

Q: CNc1ncc(-c2nc(C)cc(-c3ccc(-n4ccn(C)c4=O)c(Cl)c3)c2O)cc1N1CCN(C(C)(C)C)CC1 [Example 963, 1-(4-(5′-(4-(tert-butyl)piperazin-1-yl)-3-hydroxy-6-methyl-6′-(methylamino)-[2,3′-bipyridin]-4-yl)-2-chlorophenyl)-3-methyl-1H-imidazol-2(3H)-one] was tested. Which GI50 [1] did it give?
A: The GI50 was 0.3 to 30 nM.

Q: And the IC50 [2]?
A: The IC50 was 1 to 10 nM.

Q: Which GI50 [1] does the source give for Cc1cc(-c2ccc(-n3ccn(C)c3=O)c(Cl)c2)c(O)c(-c2cnc(N(C)C)c(N3CCN(C(C)(C)C)CC3)c2)n1 [Example 964, 1-(4-(5′-(4-(tert-butyl)piperazin-1-yl)-6′-(dimethylamino)-3-hydroxy-6-methyl-[2,3′-bipyridin]-4-yl)-2-chlorophenyl)-3-methyl-1H-imidazol-2(3H)-one] here?
A: Its GI50 is 0.3 to 30 nM.

Q: What about the IC50 [2] of the same molecule?
A: Its IC50 is 0.01 to 1 nM.

Q: For CNc1ncc(-c2cc(F)cc(-c3ccc(-n4ccn(C)c4=O)c(Cl)c3)c2O)cc1N1CCC2(CCN2C(C)C)C1 (stereo not shown) [Example 965, 1-{3-Chloro-5′-fluoro-2′-hydroxy-3′-[5-(1-isopropyl-1,6-diaza-spiro[3.4]oct-6-yl)-6-methylamino-pyridin-3-yl]-biphenyl-4-yl}-3-methyl-1,3-dihydro-imidazol-2-one], which GI50 [1] is on record?
A: The GI50 was 0.3 to 30 nM.

Q: And the IC50 [2]?
A: Its IC50 is 1 to 10 nM.

Q: How did the GI50 [1] turn out when CC(C)N1CCC[C@@]12CCN(c1cccc(-c3cc(F)cc(-c4ccc(-n5ccn(C)c5=O)c(Cl)c4)c3O)c1)C2 [Example 966, (S)-1-(3-chloro-5′-fluoro-2′-hydroxy-3″-(1-isopropyl-1,7-diazaspiro[4.4]nonan-7-yl)-[1,1′:3′,1″-terphenyl]-4-yl)-3-methyl-1,3-dihydro-2H-imidazol-2-one] was run?
A: The GI50 was 30 to 300 nM.

Q: And the IC50 [2]?
A: The IC50 was 1 to 10 nM.

Q: Which results are given for CC(C)N1CCC[C@]12CCN(c1cccc(-c3cc(F)cc(-c4ccc(-n5ccn(C)c5=O)c(Cl)c4)c3O)c1)C2 [Example 967, (R)-1-(3-chloro-5′-fluoro-2′-hydroxy-3″-(1-isopropyl-1,7-diazaspiro[4.4]nonan-7-yl)-[1,1′:3′,1″-terphenyl]-4-yl)-3-methyl-1,3-dihydro-2H-imidazol-2-one]?
A: GI50 [1]: 30 to 300 nM; IC50 [2]: 1 to 10 nM

Q: For CC(C)N1CCCC12CCN(c1cc(-c3cc(F)cc(-c4ccc(-n5ccn(C)c5=O)c(Cl)c4)c3O)cnc1N)C2 (stereo not shown) [Example 968, 1-(3′-(6-amino-5-(1-isopropyl-1,7-diazaspiro[4.4]nonan-7-yl)pyridin-3-yl)-3-chloro-5′-fluoro-2′-hydroxy-[1,1′biphenyl]-4-yl)-3-methyl-1H-imidazol-2(3H)-one], which GI50 [1] is on record?
A: Its GI50 is 0.3 to 30 nM.

Q: And the IC50 [2]?
A: Its IC50 is 1 to 10 nM.

Q: With CC(C)N1CCCC12CCN(c1cc(-c3cc(F)cc(-c4ccc(-n5ccn(C)c5=O)c(Cl)c4)c3O)cnc1N(C)C)C2 (stereo not shown) [Example 969, 1-(3-chloro-3′-(6-(dimethylamino)-5-(1-isopropyl-1,7-diazaspiro[4.4]nonan-7-yl)pyridin-3-yl)-5′-fluoro-2′-hydroxy-[1,1′-biphenyl]-4-yl)-3-methyl-1H-imidazol-2(3H)-one] as the molecule, how does the GI50 [1] read?
A: The GI50 was 30 to 300 nM.

Q: And the IC50 [2]?
A: Its IC50 is 1 to 10 nM.

Q: Which results are given for CNc1ncc(-c2cc(F)cc(-c3ccc(-n4ccn(C)c4=O)c(Cl)c3)c2O)cc1N1CCC2(CCCN2C(C)C)C1 (stereo not shown) [Example 970, 1-(3-chloro-5′-fluoro-2′-hydroxy-3′-(5-(1-isopropyl-1,7-diazaspiro[4.4]nonan-7-yl)-6-(methylamino)pyridin-3-yl)-[1,1′-biphenyl]-4-yl)-3-methyl-1H-imidazol-2(3H)-one]?
A: GI50 [1]: 0.3 to 30 nM; IC50 [2]: 1 to 10 nM

Q: For Cc1cc(-c2ccc(-n3ccn(C)c3=O)c(Cl)c2)c(O)c(-c2cc(N3CCN(C(C)(C)C)CC3)c3nccn3c2)n1 [Example 971, 1-(4-(2-(8-(4-(tert-butyl)piperazin-1-yl)imidazo[1,2-a]pyridin-6-yl)-3-hydroxy-6-methylpyridin-4-yl)-2-chlorophenyl)-3-methyl-1H-imidazol-2(3H)-one], which GI50 [1] is on record?
A: Its GI50 is 0.3 to 30 nM.

Q: What about the IC50 [2] of the same molecule?
A: Its IC50 is 0.01 to 1 nM.

Q: For COc1ncc(-c2nc(C)cc(-c3ccc(-n4ccn(C)c4=O)c(Cl)c3)c2O)cc1N1CCC2(CCCN2C(C)C)C1 (stereo not shown) [Example 972, 1-(2-chloro-4-(3-hydroxy-5′-(1-isopropyl-1,7-diazaspiro[4.4]nonan-7-yl)-6′-methoxy-6-methyl-[2,3′-bipyridin]-4-yl)phenyl)-3-methyl-1H-imidazol-2(3H)-one], which GI50 [1] is on record?
A: The GI50 was 0.3 to 30 nM.

Q: What about the IC50 [2] of the same molecule?
A: The IC50 was 0.01 to 1 nM.
